Measurements from ChEMBL document CHEMBL1128195, “A novel class of cyclic beta-dicarbonyl leaving groups and their use in the design of benzisothiazolone human leukocyte elastase inhibitors” (J Med Chem, 1995).

Key:
in vitro [1] = conditions: human, liver
Description: Half life in human liver at 37 degree C

in vitro [2] = conditions: human, blood

half-life (in vitro [1]) [h]	half-life (in vitro [2]) [h]	Compound
1.22	2.33	COc1cc(C(C)C)c2c(c1)S(=O)(=O)N(COC(=O)c1c(Cl)cccc1Cl)C2=O
0.583	2.82	COc1cc(C(C)C)c2c(c1)S(=O)(=O)N(COC1=C(Cc3ccccc3)C(=O)OC1C)C2=O (configuration not stated)
	< 0.25	COc1cc(C(C)C)c2c(c1)S(=O)(=O)N(COC1=CC(=O)c3ccccc31)C2=O
	0.483	COc1cc(C(C)C)c2c(c1)S(=O)(=O)N(COC1=C(c3ccccc3)C(=O)OC1)C2=O
1.25	0.967	COc1cc(C(C)C)c2c(c1)S(=O)(=O)N(COC1=C(Cc3ccccc3)C(=O)OC1)C2=O
	< 0.25	COc1cc(C(C)C)c2c(c1)S(=O)(=O)N(COC1=C(C)C(=O)CC1)C2=O
1.37	2.57	COc1cc(C(C)C)c2c(c1)S(=O)(=O)N(COC1=C(c3ccccc3)C(=O)OC1C)C2=O (configuration not stated)
	6	COc1cc(C(C)C)c2c(c1)S(=O)(=O)N(COc1cc(=O)oc3ccccc13)C2=O
	2.07	COc1cc(C(C)C)c2c(c1)S(=O)(=O)N(COc1nc3ccccn3c(=O)c1Br)C2=O
	< 0.25	COc1cc(C(C)C)c2c(c1)S(=O)(=O)N(COC1=CC(=O)C1)C2=O
	< 0.25	COc1cc(C(C)C)c2c(c1)S(=O)(=O)N(COc1cc(C)oc(=O)c1)C2=O
	0.85	COc1cc(C(C)C)c2c(c1)S(=O)(=O)N(COc1cc(=O)n3c(n1)CCCC3)C2=O
	< 0.25	COc1cc(C(C)C)c2c(c1)S(=O)(=O)N(COC1=CC(=O)OC1C)C2=O (configuration not stated)
	< 0.25	COc1cc(C(C)C)c2c(c1)S(=O)(=O)N(COC1=C(Cl)C(=O)OC1)C2=O
	3.83	CCC(C)c1cccc2c1C(=O)N(COc1nc3ccccn3c(=O)c1Cl)S2(=O)=O (configuration not stated)
	0.233	COc1cc(C(C)C)c2c(c1)S(=O)(=O)N(COC1=CC(=O)N(Cc3ccccc3)C1)C2=O
	< 0.25	COc1cc(C(C)C)c2c(c1)S(=O)(=O)N(COC1=CC(=O)OC1)C2=O
	2.67	COc1cc(C(C)C)c2c(c1)S(=O)(=O)N(COc1nc3ccccn3c(=O)c1Cl)C2=O
	< 0.25	COc1cc(C(C)C)c2c(c1)S(=O)(=O)N(COc1cc(C)oc(=O)c1Cl)C2=O
	< 0.25	COc1cc(C(C)C)c2c(c1)S(=O)(=O)N(COc1cc(C)oc(=O)c1C(=O)c1ccccc1)C2=O
	0.833	CC(C)c1cccc2c1C(=O)N(COc1nc3ccccn3c(=O)c1Cl)S2(=O)=O
1.72	5.83	COc1cc(C(C)C)c2c(c1)S(=O)(=O)N(COc1nc3ccccn3c(=O)c1C)C2=O
	0.917	COc1cc(C(C)C)c2c(c1)S(=O)(=O)N(COC1=C(Cc3ccccc3)C(=O)CC1)C2=O
	0.267	COc1cc(C(C)C)c2c(c1)S(=O)(=O)N(COC1=C(C)C(=O)CCC1)C2=O
	< 0.25	O=C1c2ccccc2S(=O)(=O)N1COc1nc2ccccn2c(=O)c1Cl
1.7	1.78	COc1cc(C(C)C)c2c(c1)S(=O)(=O)N(COc1cc(=O)n3ccccc3n1)C2=O
